The results in this text go back to patent US7294643B2, “UK-1 analogues: methods of preparation and use” (Board of Regents, The University of Texas System, priority 2002, dated 2007).

Common to all, as to type: cell-based
In one series the test system is MCF-7 cells. Kind of series: alamarBlue cytotoxicity assay, MCF-7. The conditions noted are these: Homo sapiens, MCF7; MCF-7, alamarBlue, 72 h. The protocol: (§1) Cytotoxicity Assays. Cell culture cytotoxicity assays were performed using the. alamarBlue method, as described by Ahmed et al., J. Immun. Methods 1994, 170, 211-224, which is incorporated herein by reference. Briefly, aliquots of 100 μL of cell suspension (1.0-2.5×10^3 cells) was placed in 96-well microtiter plates in an atmosphere of 5% CO2 at 37° C. After 24 hours, 100 μL of culture medium and 2 μL of compound in vehicle (culture media with 40% pyridine) or vehicle alone were added, and the plates incubated an additional 72 hours. The final pyridine concentration in all cases was 0.4%; at this pyridine concentration there was no affect on the growth of cells compared to cells in culture media without added pyridine. […] After the culture media had been removed from each well, 200 μL of fresh media and 20 μL of 90% alamarBlue reagent were added, followed by an additional 6 h incubation. The fluorescent intensity was measured using a Spectrafluor Plus plate reader with excitation at 530 nm and emission at 590 nm. Results are reported as IC50 values, the average concentration required to produce a decrease of fluorescent intensity of 50% relative to vehicle-treated controls in two separate determinations.

In another series the test system is SK-N-AS. In words: alamarBlue cytotoxicity assay, SK-N-AS. The settings on record: Homo sapiens. The protocol:
as §1

A short description of series [1]: alamarBlue cytotoxicity, range over four cell lines. The conditions noted are these: human. The protocol: as §1, with “hours.” for “hours. The final pyridine concentration in all cases was 0.4%; at this pyridine concentration there was no affect on the growth of cells compared to cells in culture media without added pyridine.”, “nm.” for “nm. Results are reported as IC50 values, the average concentration required to produce a decrease of fluorescent intensity of 50% relative to vehicle-treated controls in two separate determinations.”
In general terms: Resazurin is reduced to fluorescent resorufin, in cell work by metabolically active cells.

What is called IC50 is the concentration that gives 50% inhibition. A lower IC50 goes with inhibition by little substance. Take `COC(=O)c1cccc2oc(-c3cccc4oc(-c5ccccc5O)nc34)nc12` [UK-1]: the figures for the IC50 in the series with MCF-7 cells and with SK-N-AS were 1.6 µM and 24 µM, respectively. This compound yielded an IC50 at 72 h in series [1] of 0.32 to 65 µM.
